In patent US20220323494A1, “Novel Control Switch” (GlaxoSmithKline Intellectual Property Development Limited, priority 2018, published 2022):

B1: Construct 14: conventional single chain CAR (SEQ ID NO: 52) that uses components from CONSTRUCT 10 (protein)
chain: MALPVTALLLPLALLLHAARPQVQLVQSGAEVKKPGSSVKVSCKGSGYTFTNYWMHWVRQAPGQGLEWIGATYRGHSDTYYNQKFKGRATLTADTSTSTAYMELSSLRSEDTAVYYCTRGAIYDGYDVLDNWGQGTLVTVSSGGGGSGGGGSGGGGSGGGGSDIQMTQSPSSLSASVGDRVTITCSASQDISNYLNWYQQKPGKAPKLLIYYTSNLHSGVPSRFSGSGSGTDFTLTISSLQPEDFATYYCQQYRKLPWTFGQGTKLEIKRFVPVFLPAKPTTTPAPRPPTPAPTIASQPLSLRPEACRPAAGGAVHTRGLDFACDIYIWAPLAGTCGVLLLSLVITLYCNHRNKRGRKKLLYIFKQPFMRPVQTTQEEDGCSCRFPEEEEGGCELRVKFSRSADAPAYQQGQNQLYNELNLGRREEYDVLDKRRGRDPEMGGKPRRKNPQEGLYNELQKDKMAEAYSEIGMKGERRRGKGHDGLYQGLSTATKDTYDALHMQALPPR
modifications: Construct 14 amino acid sequence

Tests used:
ARH-77-10B5 cells = experiment: xCelligence cytotoxicity assay; type: cell-based; details: T-cells transduced with Construct 10; 10 μM BI224436
Protocol: Transduction of primary T-cells: Method described in Example 5
xCelligence cytotoxicity assay ARH-77-10B5 cells were as described in Example 1. BI224436 compound at a stock concentration of 100 mM in 100% DMSO was diluted in Jurkat media to achieve a stock concentration of 100 μM. xCelligence E-plates (ACEA, 06472460001) were coated with anti-CD40 tethering agent by following manufacturer's instructions for B-cell Killing (anti-CD40) Assay kit (ACEA, 8100004). Plates were inserted into the xCelligence station (ACEA) (37° C., 5% CO2) and allowed to equilibrate to 37° C. for 1 hour prior to taking background measurement. ARH-77-10B5 cells or Jurkat media were added to the plates (1×10^4 cells per well) and cultured for 20 h. Each T-cell population was incubated at a final concentration of 10 μM or 0 μM BI224436 in Jurkat media for 1 hour at 37° C. with 5% CO2. T-cells were added to the plates (1×10^4 cells per well, 1:1 effector:target ratio) and incubated in the xCelligence station for 24 hours. Data analysis was carried out using xCELLigence Immunotherapy Software (ACEA). The cell index for samples was normalized to the point of T-cell addition, then the normalized cell index for T-cells was divided by the normalized cell index of target cells alone to give the % viable cells at a given timepoint.

[1] = test system: primary T-cells transduced with the HIV Integrase LEDGF/p75 OFF-CAR; experiment: Cytokine release by primary T-cells transduced with OFF-switch CAR (Example 5); type: cell-based, human; details: T-cells transduced with Construct 10 and 11; 10 μM, ARH-77-10B5, 24 hour
Protocol: Primary T-cell transduction and cytokine release: Peripheral blood mononuclear cells (PBMCs) from the fresh blood of two healthy human donors were isolated by density gradient centrifugation in Accuspin tubes (Sigma) containing 15 mL of Histopaque-1077 (Sigma) and following manufacturer's instructions. Cells were resuspended at 1×10^6 cells/mL in TEXMacs media (Miltenyi Biotec) containing 100 units/mL of IL-2 (Sigma) and TransAct beads (Miltenyi Biotec) and incubated for 48 hours at 37° C. with 5% CO2.
T-cells from the two donors were transduced with the lentiviral vectors encoding for CONSTRUCT 10 and CONSTRUCT 11. Transduction reactions were prepared to achieve an MOI of 5. T-cells were cultured in TEXMacs media (Miltentyi Biotec) with 100 units/mL of IL-2, fresh media was added every 3 days. ARH-77-10B5 cells were cultured as described in Example 1. BI224436 compound at a stock concentration of 100 mM in 100% DMSO was diluted in Jurkat media to achieve a stock concentration of 100 μM. Each T-cell population was incubated at a final concentration of 10 μM or 0 μM (media alone) BI224436 in Jurkat media for 1 hour at 37° C. with 5% CO2. […] Supernatants were analysed for cytokine levels using MSD V-plex Proinflammatory Panel 1 Human Kit (MSD, K15049D-2) and MSD Sector Imager (MSD).

[2] = test system: NFAT promoter in Jurkat cells; experiment: NFAT-luciferase assay in Jurkat cells transfected with CAR constructs, co-cultured with ARH-77-10B5 cells; type: cell-based; details: 3 μM BI224436, 48 hours
Protocol: NFAT-luc2 Jurkat cells (Promega) were cultured in Jurkat media: RPMI medium 1640 (1×) without L-glutamine with phenol red (Gibco), 10% (v/v) Fetal Bovine Serum (FBS) Heat-Inactivated (Gibco), 1% (v/v) Minimum essential medium non-essential amino acids (MEM NEAA) (ThermoFisher), 1% (v/v) Sodium Pyruvate (Sigma), 1% (v/v) L-Glutamine (Gibco). ARH-77-10B5 cells were cultured in Jurkat media plus 1 mg/mL G418 (Thermo, 10131035). Cells were incubated at 37° C. with 5% CO2 for 48 hours. 20 μg of plasmid DNA from each construct was mixed with 8×10^6 NFAT-luc2 Jurkat cells and cells were transfected using the 4D-Nucleofector (Lonza) with cell Line SE Nucleofector kit (Lonza) by following manufacturer instructions with program CL-120. BI224436 compound (Chemexpress HY-18595) at a stock concentration of 100 mM in 100% DMSO (Sigma, D2650) was diluted in Jurkat media to achieve a stock concentration of 100 μM. Using the 100 μM BI224436 stock in Jurkat media, NFAT-luc2 Jurkat cells were incubated at a final compound concentration of 3 μM for 48 hours at 37° C. with 5% CO2. NFAT-luc2 Jurkat cells were then co-cultured (1×10^5 cells per well, 1:1 effector:target ratio) with ARH-77-10B5 cells (BCMA positive cells) for 6.5 hours. NFAT-luciferase luminescence was measured by using the Bio-Glo Luciferase Assay System (Promega G7940) (following manufacturer's instructions) and an EnSpire Multimode Plate Reader (Perkin Elmer).

[3] = test system: primary T-cells transduced with the HIV Integrase LEDGF/p75 OFF-switch CAR; experiment: Cytokine release with titration of BI224436, primary T-cells transduced with Construct 13 (Example 6); type: cell-based, human
Protocol: Lentiviral vector production and transduction of primary T-cells: Method for lentiviral production is described in Example 4 and method for primary T-cell transduction is described in Example 5.
Cytokine release: ARH-77-10B5 cells were cultured as described in Example 1. BI224436 compound at a stock concentration of 100 mM in 100% DMSO was diluted in Jurkat media to achieve a stock concentration of 100 μM. Each T-cell population was incubated at a final concentration of 10 μM, 3.3 μM, 1.1 μM, 0.37 μM, 0.12 μM, 0.04 μM, 0.013 μM, 0.004 μM, 0.001 μM or 0 μM (media alone) BI224436 in Jurkat media for 1 hour at 37° C. with 5% CO2. T-cells were then co-cultured (5×10^4 cells per well, 1:1 effector:target ratio) with ARH-77-10B5 cells (BCMA positive cells) for 24 hours in Jurkat media at 37° C. with 5% CO2. Cells were pelleted (1200 rpm, 5 min) and supernatants were collected. Supernatants were analysed for cytokine levels using MSD V-plex Proinflammatory Panel 1 Human Kit (MSD, K15049D-2) and MSD Sector Imager (MSD).

[4] = Plasma concentration of BI224436 in human subjects (clinical trial NCT01276990); type: in vivo; details: plasma 24 hours after 200 mg oral doses; IC50 is lower
K562 BCMA cells = experiment: Flow cytometry cytotoxicity assay, BCMA-positive target cells; type: cell-based; details: for Effect of BI224436 on cytotoxicity: 10 μM BI224436
Protocol: (§1) Isolation and transduction of CD4+ and CD8+ T-cells: Peripheral blood mononuclear cells (PBMCs) from the fresh blood of one healthy human donor was isolated by density gradient centrifugation in Accuspin tubes (Sigma) containing 15 mL of Histopaque-1077 (Sigma) and following manufacturer's instructions. CD4+ and CD8+ T cells were isolated using CD4 and CD8 microbeads (Miltenyi Biotec) and the AutoMACS Pro-separator (Miltenyi Biotec). Cells were resuspended at 1×10^6 cells/mL in TEXMacs media (Miltenyi Biotec) containing 100 units/mL of IL-7 (Sigma), 100 units/mL of IL-15 (Sigma) and TransAct beads (Miltenyi Biotec) and incubated for 48 hours at 37° C. with 5% CO2.
T-cells were transduced with lentiviral vectors encoding for CONSTRUCT 14 or CONSTRUCT 10. Transduced T-cells and untransduced (UT) T-cells were cultured in TEXMacs media (Miltenyi Biotec) with 100 units/mL of IL-7 (Sigma) and IL-15 (Sigma), and fresh media was added every 3 days. […] 1×10^5 of each T-cell population was stained with AlexaFluor 647 conjugated BCMA-Fc (generated in-house) to label theanti-BCMA scFv on the CARs. Measurements were made using a Cytoflex S (Beckman Coulter) and data analysed using FlowJo (FlowJo).
K562 BCMA cells (BCMA positive) were cultured in Jurkat media plus 0.8 mg/mL G418 (Gibco) and K562 cells (BCMA negative) were cultured in Jurkat media. Both cell lines were cultured at 37° C. with 5% CO2. BI224436 compound at a stock concentration of 100 mM in 100% DMSO (Sigma) was diluted in Jurkat media to achieve a stock concentration of 100 μM. K562 cells were stained with Cell Trace Far Red (0.5 μM, ThermoFisher) and K562 BCMA cells were stained with Cell Trace Violet (2.5 μM, ThermoFisher). […] 50 μL of each well was analysed on a Cytoflex S (Beckman Coulter) and data was analysed using FlowJo (FlowJo). The percentage of surviving K562 and K562 BCMA cells was calculated by dividing the number of K562 and K562 BCMA cells in each condition by the number of K562 and K562 BCMA cells found following co-culture with UT T-cells in 0 μM BI224436.

[5] = test system: K562 cells (BCMA negative); experiment: Flow cytometry cytotoxicity assay, BCMA-negative target cells; type: cell-based; details: transduced primary T-cells, K562 WT, 1:1 or 4:1 effector:target, 48 hours
Protocol: as §1
T-cells were transduced with lentiviral vectors encoding for CONSTRUCT 14 or CONSTRUCT 10. […] Measurements were made using a Cytoflex S (Beckman Coulter) and data analysed using FlowJo (FlowJo).
K562 BCMA cells (BCMA positive) were cultured in Jurkat media plus 0.8 mg/mL G418 (Gibco) and K562 cells (BCMA negative) were cultured in Jurkat media. […] 50 μL of each well was analysed on a Cytoflex S (Beckman Coulter) and data was analysed using FlowJo (FlowJo). The percentage of surviving K562 and K562 BCMA cells was calculated by dividing the number of K562 and K562 BCMA cells in each condition by the number of K562 and K562 BCMA cells found following co-culture with UT T-cells in 0 μM BI224436.

Molecule	Effect of BI224436 on cytotoxic response (ARH-77-10B5 cells)	Effect of compound on cytokine release [1]	Effect of BI224436 on NFAT activation ([2]; Jurkat cells transfected with Construct 6)	Effect of BI224436 on NFAT activation ([2]; Jurkat cells transfected with Construct 7)	Effect of BI224436 on NFAT activation ([2]; Jurkat cells transfected with Constructs 1 to 4)	IC50 ([3]; Homo sapiens, T-cell, primary T-cells transduced with Construct 13, stimulated with ARH-77-10B5, 24 hours, read-out: IC50 concentration for cytokine release (TNF-alpha, IL-2, IFN-gamma)) [nM]	Effect of BI224436 concentration on level of TNF-alpha, IL-2 and IFN-gamma release ([3]; primary T-cells transduced with Construct 13, 0.001-10 μM titration)	IC50 concentration relative to plasma concentrations in human subjects [4] [fold]	Effect of BI224436 on cytotoxicity (K562 BCMA cells; T-cells transduced with OFF-switch CAR (Construct 10))	Effect of BI224436 on cytotoxicity (K562 BCMA cells; T-cells transduced with conventional CAR (Construct 14))	Killing of BCMA-negative cells [5]	Killing of BCMA-positive cells (K562 BCMA cells; transduced primary T-cells, K562 BCMA, 1:1 or 4:1 effector:target, 48 hours)
Cc1nc2ccccc2c(-c2ccc3c4c(ccnc24)CCO3)c1[C@H](OC(C)(C)C)C(=O)O [BI224436, 3-Quinolineacetic acid, 4-(2,3-dihydropyrano[4,3,2-de]quinolin-7-yl)-α-(1,1-dimethylethoxy)-2-methyl-,(αS,4R)-]	reduced	attenuated	preserved	preserved	does not reduce the level of activation	100	tunes the level	10	effectively attenuates	does not affect		
B1											not BCMA-negative cells	kill BCMA-positive cells
